Experimental data as given in ChEMBL document CHEMBL1201862, “PubChem BioAssay data set” (2004).
Activity calls are given as the source filed them.

What was measured:
[1] = target: Lysine-specific demethylase 4C (Homo sapiens, UniProt Q9H3R0); assay: GASC-1 (JMJD2C) histone demethylase inhibitors, dose response, biochemical, DELFIA europium, cherry-picked samples (AID 488835); type: functional
Genome polyprotein = Genome polyprotein (dengue virus type 2, UniProt P29990); assay: Dengue-2 NS5 methyltransferase inhibitors, primary screen, biochemical, confirmation dose response (AID 588689); type: functional
CHO-K1 = assay: (§1) Counterscreen for antagonists of the orexin 1 receptor (OX1R; HCRTR1): Homogeneous time resolved fluorescence (HTRF)-based cell-based dose response assay to identify antagonists of the parental CHO-K1 cell line. [Related pubchem assays (depositor defined):AID434989, AID435008, AID463079, AID485270, AID492963, AID492964, AID492965, AID493232, AID504699, AID504701]; type: functional; details: Cricetulus griseus
[2] = as §1, with “Fluorescence-based” for “Homogeneous time resolved fluorescence (HTRF)-based”, “cell-based high throughput” for “cell-based”, “CHO” for “CHO-K1”; type: functional
[3] = target: T1, Orexin/Hypocretin receptor type 1 (Homo sapiens, UniProt O43613); assay: Homogeneous Time Resolved Fluorescence (HTRF)-based cell-based high throughput dose response assay for antagonists of the orexin 1 receptor (OX1R; HCRTR1). [Related pubchem assays (depositor defined):AID434989, AID435008, AID463079, AID485270, AID492963, AID492964, AID492965, AID493232, AID504717, AID504718]; type: functional
T1 sequence (O43613 whole entry): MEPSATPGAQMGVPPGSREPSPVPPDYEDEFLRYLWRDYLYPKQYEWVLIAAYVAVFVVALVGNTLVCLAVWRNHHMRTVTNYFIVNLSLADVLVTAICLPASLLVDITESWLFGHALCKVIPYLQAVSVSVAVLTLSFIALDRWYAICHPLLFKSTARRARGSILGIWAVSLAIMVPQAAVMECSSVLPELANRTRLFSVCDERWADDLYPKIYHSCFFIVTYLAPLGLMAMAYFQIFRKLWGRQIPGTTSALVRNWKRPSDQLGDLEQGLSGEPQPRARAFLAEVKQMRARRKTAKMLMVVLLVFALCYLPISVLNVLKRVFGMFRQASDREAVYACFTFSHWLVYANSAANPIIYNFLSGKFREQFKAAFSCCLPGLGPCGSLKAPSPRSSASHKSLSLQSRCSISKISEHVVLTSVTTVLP

[4] = target: T1, Orexin/Hypocretin receptor type 1; assay: Fluorescence-based cell-based high throughput dose response assay for antagonists of the orexin 1 receptor (OX1R; HCRTR1). [Related pubchem assays (depositor defined):AID434989, AID435008, AID463079, AID485270, AID492963, AID492964, AID492965, AID493232, AID504717, AID504718]; type: functional
[5] = target: T2, Tyrosine-protein phosphatase non-receptor type 7 (Homo sapiens, UniProt P35236); type: functional
T2 sequence (P35236 whole entry): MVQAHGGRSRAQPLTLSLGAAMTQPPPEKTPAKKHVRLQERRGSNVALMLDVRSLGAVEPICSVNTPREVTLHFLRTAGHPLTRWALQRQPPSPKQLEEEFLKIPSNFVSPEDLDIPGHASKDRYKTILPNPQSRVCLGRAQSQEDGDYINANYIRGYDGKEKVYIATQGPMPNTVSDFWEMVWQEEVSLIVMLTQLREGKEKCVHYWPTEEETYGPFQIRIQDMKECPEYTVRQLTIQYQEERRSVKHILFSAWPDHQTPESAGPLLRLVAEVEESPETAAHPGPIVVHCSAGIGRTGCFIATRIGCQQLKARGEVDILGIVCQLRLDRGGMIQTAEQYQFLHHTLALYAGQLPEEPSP

[6] = target: Glyceraldehyde-3-phosphate dehydrogenase (Homo sapiens, UniProt P04406)
Sequence of Glyceraldehyde-3-phosphate dehydrogenase (P04406 whole entry): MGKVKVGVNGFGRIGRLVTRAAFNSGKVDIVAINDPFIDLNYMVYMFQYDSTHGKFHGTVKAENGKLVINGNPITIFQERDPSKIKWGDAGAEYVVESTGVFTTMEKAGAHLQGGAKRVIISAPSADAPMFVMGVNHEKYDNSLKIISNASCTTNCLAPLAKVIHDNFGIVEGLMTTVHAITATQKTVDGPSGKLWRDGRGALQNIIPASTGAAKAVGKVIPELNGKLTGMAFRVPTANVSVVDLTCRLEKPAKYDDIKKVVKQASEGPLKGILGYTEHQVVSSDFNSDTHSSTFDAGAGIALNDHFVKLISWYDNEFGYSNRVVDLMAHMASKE

[7] = target: Heat shock cognate 71 kDa protein (Homo sapiens, UniProt P11142); assay: In Vitro Hsc70 Dose Response Fluorescence Polarization Assay. [Related pubchem assays: 1072 ]
[8] = target: Heat shock 70 kDa protein 1A (Homo sapiens, UniProt P0DMV8); assay: Hsp70 inhibitors, SAR follow-up, biochemical, fluorescence polarization (AID 1072)
[9] = target: T3, Dual specificity protein phosphatase 6 (Rattus norvegicus, UniProt Q64346)
T3 sequence (Q64346 whole entry): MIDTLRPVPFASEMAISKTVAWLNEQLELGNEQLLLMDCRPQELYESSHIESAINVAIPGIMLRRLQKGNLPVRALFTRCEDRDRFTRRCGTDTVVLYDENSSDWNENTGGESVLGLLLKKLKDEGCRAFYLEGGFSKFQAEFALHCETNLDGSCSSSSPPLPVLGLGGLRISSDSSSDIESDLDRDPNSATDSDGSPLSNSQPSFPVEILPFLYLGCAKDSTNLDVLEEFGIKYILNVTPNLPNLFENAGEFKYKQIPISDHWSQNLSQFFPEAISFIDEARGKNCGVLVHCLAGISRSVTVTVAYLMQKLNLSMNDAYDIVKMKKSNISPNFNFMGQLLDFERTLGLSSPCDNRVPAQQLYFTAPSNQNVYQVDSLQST

[10] = target: T3, Dual specificity protein phosphatase 6; type: functional
[11] = target: T4, Voltage-gated N-type calcium channel alpha-1B subunit/Amyloid beta A4 precursor protein-binding family A member 1 (Homo sapiens, UniProt Q00975+Q02410); type: protein assay
T4 sequence (Q00975 whole entry): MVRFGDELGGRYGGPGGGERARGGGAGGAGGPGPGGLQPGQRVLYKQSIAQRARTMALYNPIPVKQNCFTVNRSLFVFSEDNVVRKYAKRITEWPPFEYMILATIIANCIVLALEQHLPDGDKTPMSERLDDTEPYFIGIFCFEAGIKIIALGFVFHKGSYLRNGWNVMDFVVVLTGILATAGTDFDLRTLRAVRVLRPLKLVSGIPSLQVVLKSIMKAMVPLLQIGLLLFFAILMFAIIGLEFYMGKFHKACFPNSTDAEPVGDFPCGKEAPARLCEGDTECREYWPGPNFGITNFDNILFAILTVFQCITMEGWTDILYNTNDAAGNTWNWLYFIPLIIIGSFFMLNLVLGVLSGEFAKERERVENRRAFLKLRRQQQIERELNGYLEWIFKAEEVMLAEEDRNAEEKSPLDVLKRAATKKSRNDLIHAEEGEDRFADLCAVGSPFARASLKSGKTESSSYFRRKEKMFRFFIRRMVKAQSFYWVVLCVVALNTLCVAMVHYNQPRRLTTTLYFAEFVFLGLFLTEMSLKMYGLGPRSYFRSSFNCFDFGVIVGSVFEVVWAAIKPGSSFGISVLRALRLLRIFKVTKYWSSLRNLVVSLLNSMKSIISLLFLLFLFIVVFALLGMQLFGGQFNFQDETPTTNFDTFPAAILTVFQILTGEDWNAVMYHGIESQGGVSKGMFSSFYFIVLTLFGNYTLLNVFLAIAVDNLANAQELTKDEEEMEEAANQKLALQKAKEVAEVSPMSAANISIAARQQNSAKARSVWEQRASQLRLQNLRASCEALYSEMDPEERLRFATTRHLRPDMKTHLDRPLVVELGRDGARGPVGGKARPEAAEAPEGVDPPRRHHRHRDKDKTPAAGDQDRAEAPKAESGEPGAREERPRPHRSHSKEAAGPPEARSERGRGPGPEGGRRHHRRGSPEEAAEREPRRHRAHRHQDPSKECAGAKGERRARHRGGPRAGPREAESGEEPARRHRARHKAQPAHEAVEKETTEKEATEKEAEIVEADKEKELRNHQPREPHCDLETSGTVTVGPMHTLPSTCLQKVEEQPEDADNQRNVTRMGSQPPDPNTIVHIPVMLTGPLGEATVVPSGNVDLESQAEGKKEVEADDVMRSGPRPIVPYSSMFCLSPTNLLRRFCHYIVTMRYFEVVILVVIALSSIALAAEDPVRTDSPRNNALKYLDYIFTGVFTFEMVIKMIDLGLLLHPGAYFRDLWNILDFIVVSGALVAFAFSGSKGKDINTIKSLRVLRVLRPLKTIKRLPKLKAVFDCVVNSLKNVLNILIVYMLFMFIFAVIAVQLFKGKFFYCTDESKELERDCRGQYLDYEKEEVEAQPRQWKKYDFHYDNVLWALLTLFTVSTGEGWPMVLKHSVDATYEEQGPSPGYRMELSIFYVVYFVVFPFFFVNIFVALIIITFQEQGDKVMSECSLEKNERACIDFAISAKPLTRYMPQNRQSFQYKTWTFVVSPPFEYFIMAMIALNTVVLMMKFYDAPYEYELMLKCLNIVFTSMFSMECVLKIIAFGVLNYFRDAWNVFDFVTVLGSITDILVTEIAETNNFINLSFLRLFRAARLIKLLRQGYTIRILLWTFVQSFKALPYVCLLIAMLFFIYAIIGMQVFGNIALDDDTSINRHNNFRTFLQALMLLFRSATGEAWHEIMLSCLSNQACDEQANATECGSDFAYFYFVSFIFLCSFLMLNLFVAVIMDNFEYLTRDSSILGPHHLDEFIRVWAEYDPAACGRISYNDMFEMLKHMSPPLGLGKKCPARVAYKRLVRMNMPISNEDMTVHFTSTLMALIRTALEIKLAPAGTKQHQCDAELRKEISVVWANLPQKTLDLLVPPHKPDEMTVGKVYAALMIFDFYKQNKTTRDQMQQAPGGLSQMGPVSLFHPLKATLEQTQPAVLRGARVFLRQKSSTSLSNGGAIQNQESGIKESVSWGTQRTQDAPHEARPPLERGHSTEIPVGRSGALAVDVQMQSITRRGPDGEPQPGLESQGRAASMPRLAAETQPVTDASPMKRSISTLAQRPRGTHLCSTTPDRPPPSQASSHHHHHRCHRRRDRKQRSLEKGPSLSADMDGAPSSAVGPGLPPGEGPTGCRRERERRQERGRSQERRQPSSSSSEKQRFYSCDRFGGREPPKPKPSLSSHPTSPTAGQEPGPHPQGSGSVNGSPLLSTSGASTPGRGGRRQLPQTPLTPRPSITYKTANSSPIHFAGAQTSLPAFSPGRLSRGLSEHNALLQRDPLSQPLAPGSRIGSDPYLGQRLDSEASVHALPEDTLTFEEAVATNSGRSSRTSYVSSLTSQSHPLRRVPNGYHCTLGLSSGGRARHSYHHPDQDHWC
T4 sequence (Q02410 whole entry): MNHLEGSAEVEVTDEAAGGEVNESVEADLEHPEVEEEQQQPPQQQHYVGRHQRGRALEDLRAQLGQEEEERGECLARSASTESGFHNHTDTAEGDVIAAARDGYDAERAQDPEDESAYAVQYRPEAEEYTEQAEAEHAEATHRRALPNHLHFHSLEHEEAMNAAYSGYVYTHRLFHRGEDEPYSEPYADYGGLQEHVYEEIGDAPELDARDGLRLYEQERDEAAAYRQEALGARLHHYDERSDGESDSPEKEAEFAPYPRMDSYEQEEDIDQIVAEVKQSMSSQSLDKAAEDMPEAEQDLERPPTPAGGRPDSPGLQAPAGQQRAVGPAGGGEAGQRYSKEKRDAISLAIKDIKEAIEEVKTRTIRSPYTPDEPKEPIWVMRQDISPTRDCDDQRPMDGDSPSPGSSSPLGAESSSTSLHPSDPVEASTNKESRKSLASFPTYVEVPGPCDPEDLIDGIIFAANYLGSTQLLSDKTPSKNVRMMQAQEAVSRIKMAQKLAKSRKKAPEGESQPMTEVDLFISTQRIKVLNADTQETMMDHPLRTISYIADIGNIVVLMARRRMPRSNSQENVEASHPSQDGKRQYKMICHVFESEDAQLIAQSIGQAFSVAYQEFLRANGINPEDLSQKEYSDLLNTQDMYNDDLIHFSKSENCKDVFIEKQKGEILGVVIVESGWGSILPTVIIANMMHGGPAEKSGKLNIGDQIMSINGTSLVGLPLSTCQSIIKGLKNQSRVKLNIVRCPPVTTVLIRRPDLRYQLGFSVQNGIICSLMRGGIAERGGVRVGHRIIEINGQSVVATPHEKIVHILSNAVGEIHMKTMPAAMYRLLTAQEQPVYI

[12] = target: T4, Voltage-gated N-type calcium channel alpha-1B subunit/Amyloid beta A4 precursor protein-binding family A member 1; type: protein assay; remark: listed apart in the source
[13] = target: Induced myeloid leukemia cell differentiation protein Mcl-1 (Homo sapiens, UniProt Q07820); type: functional
Sequence of Induced myeloid leukemia cell differentiation protein Mcl-1 (Q07820 whole entry): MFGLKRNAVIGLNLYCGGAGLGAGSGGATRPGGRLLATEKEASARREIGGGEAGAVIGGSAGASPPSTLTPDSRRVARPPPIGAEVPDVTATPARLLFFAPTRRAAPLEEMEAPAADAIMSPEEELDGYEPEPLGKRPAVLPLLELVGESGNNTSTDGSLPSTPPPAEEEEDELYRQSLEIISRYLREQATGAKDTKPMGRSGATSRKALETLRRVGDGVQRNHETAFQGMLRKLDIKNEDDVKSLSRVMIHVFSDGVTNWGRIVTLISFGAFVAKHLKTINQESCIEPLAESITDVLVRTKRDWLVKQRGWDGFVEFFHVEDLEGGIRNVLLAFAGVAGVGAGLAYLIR

SUMO E1/E2 = SUMO E1/E2 (Homo sapiens, UniProt P63279+Q9UBE0+Q9UBT2); assay: SAR analysis of SUMOylation using HTRF in an in-Vitro dose response assay. [Related pubchem assays (depositor defined):AID2006, AID2011, AID2018, AID2069, AID2658]; type: functional
Sequence of SUMO E1/E2 (Q9UBE0 whole entry): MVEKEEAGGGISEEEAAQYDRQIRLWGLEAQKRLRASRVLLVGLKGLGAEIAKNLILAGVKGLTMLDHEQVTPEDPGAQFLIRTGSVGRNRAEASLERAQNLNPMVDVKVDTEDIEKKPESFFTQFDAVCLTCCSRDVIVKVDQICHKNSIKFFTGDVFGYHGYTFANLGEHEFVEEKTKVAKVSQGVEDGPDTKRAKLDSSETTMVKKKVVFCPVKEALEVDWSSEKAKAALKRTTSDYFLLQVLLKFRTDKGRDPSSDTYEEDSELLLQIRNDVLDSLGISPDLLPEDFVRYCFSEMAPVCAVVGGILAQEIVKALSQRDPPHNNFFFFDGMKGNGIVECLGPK
Sequence of SUMO E1/E2 (Q9UBT2 whole entry): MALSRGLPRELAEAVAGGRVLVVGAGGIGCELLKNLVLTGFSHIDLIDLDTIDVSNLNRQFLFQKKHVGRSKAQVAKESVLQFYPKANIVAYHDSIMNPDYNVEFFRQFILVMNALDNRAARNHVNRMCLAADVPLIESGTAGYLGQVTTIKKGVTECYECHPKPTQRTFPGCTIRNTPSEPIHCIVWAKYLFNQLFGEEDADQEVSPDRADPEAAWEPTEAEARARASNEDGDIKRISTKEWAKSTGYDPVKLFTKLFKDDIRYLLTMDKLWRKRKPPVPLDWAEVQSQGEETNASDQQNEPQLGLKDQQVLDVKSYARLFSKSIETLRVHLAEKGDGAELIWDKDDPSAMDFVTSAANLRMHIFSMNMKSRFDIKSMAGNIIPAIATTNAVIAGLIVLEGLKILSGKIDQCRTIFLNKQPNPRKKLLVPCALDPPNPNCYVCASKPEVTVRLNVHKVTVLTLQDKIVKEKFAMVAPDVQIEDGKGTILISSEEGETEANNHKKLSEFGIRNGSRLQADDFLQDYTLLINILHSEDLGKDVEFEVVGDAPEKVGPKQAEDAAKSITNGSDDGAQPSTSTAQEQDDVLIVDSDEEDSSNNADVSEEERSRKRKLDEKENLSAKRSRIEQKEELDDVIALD
Sequence of SUMO E1/E2 (P63279 whole entry): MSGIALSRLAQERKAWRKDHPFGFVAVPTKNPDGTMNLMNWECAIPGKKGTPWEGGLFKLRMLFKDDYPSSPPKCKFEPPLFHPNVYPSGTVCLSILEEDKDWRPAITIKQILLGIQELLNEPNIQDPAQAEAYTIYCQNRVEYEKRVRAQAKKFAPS

[14] = target: T4, Voltage-gated N-type calcium channel alpha-1B subunit/Amyloid beta A4 precursor protein-binding family A member 1; assay: disruptors of Mint-PDZ/N-type channel peptide interaction – biochemical, HTRF, set 2, SAR follow-up (AID 434980); type: functional
[15] = target: T4, Voltage-gated N-type calcium channel alpha-1B subunit/Amyloid beta A4 precursor protein-binding family A member 1; assay: disruptors of Mint-PDZ/N-type channel peptide interaction – biochemical, HTRF, SAR follow-up (AID 2489); type: functional
[16] = insulin promoter down-regulators in MIN6 cells, imaging, high-content screening, mouse beta cells (AID 1628); type: functional
BJ [17] = assay: cytotoxicity toward BJ-TERT fibroblasts, dose response, cell-based, RAS-independent, luminescence (AID 1933); type: functional; details: Homo sapiens
[18] = cytotoxicity in MIN6 insulinoma cells, dose response, cytotoxicity control, cell-based, mouse insulinoma (AID 2122); type: functional;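 also: confirmatory high-throughput counterscreen run to flag cytotoxic compounds; mouse MIN-6 beta cells carrying an insulin promoter eGFP reporter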
BJ [19] = assay: cells; type: functional, cell-based; details: Homo sapiens
[20] = cytotoxicity toward DRD oncogenic fibroblasts, dose response, cell-based, non-viral oncogenic, luminescence (AID 1934); type: functional; details: Homo sapiens
[21] = Luminescence Cell-Based Dose Retest to Confirm Inhibitors of Cancer Stem Cells. [Related pubchem assays (depositor defined):AID2717, AID2721]; type: functional; details: Homo sapiens
INS1 = assay: beta cell apoptosis inhibitors, cytokine rescue, dose response, luminescence, retest (AID 449756); type: functional, cell-based; details: Rattus norvegicus;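 also: cell death triggered by IL-1 beta plus TNF-alpha plus IFN-gamma mixture; protective hits raise ATP signal compared with cytokine alone wells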
[22] = inhibitors of HIV Env-driven cell fusion, dose response, cherry-pick (AID 652057); type: functional, cell-based
[23] = ZM109 Env clade C HIV-1 fusion inhibitors, dose response, HeLa effector, CEM target cells, luciferase, cherry-pick (AID 652058); type: functional, cell-based
[24] = off-target signal loss in HeLa-CEM21 co-culture – HeLa F-luc CTL cells, cherry-picked, counter-screen for HIV-1 Env fusion inhibitor project, dose response (AID 652040); type: functional, cell-based;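 also: potency for signal decrease marking cytotoxic or nonspecific inhibition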
[25] = inhibitors of clade B AD8 Env fusion, dose response, cell-based, cherry-pick (AID 652062); type: functional;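 also: luciferase signal from cell-cell fusion driven by HIV-1 clade B AD8 Env; potency is for inhibitors of fusion seen as a drop in luminescence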
HEK293 [26] = assay: cells; details: Homo sapiens
HEK293 [27] = assay: cells; details: Homo sapiens; remark: listed apart in the source

Cc1cc(C)cc(OCCOc2cccc(C=C3C(=O)NC(=O)NC3=O)c2)c1
AC50 [1]: > 60 µM (inactive)
IC50 (Genome polyprotein): 46.9 µM (active)

COc1cc2ccccc2cc1C(=O)Nc1ccc(N2CCOCC2)cc1
IC50 (CHO-K1): > 66.3 µM (inactive)
IC50 [2]: > 49.8 µM (inactive)
IC50 [3]: 8.59 µM (active)
IC50 [4]: > 49.8 µM (inactive)

Cc1cc([N+](=O)[O-])cc2c1NC(C(=O)O)C1CC=CC21 (stereo not given)
IC50 [5]: > 100 µM (not active)
IC50 [6]: > 100 µM (not active)
IC50 [7]: 117 µM (active)
IC50 [8]: 24.3 µM (active)
IC50 [9]: > 100 µM (inactive)
IC50 [10]: > 100 µM (inactive)

CCNC(=O)COC(=O)c1cc(-c2ccco2)nc2ccccc12
IC50 [11]: 33.6 µM (active)
IC50 [12]: 2.82 µM (active)
IC50 [13]: 4.39 µM (active)
IC50 (SUMO E1/E2): 2.63 µM (active)
IC50 [14]: 13.3 µM (active)
IC50 [15]: 18.5 µM (active)

COc1ccc(C)cc1NS(=O)(=O)c1ccc(NC(=O)CN(c2cc([N+](=O)[O-])ccc2C)S(C)(=O)=O)cc1
IC50 [16]: 1.1 µM (active)
EC50 (BJ [17]): 21 µM (active)
IC50 [18]: 1.2 µM (active)
EC50 (BJ [19]): 2.75 µM (active)
EC50 [20]: 19.7 µM (active)
AC50 [21]: 1.8 µM (active)
AC50 (INS1): 0.846 µM (active)

COc1ccccc1CNC(=O)CNC(=O)c1cc(-c2ccco2)nc2ccccc12
IC50 (SUMO E1/E2): 3.37 µM (active)
IC50 [14]: > 56.8 µM (inactive)
IC50 [15]: 23.3 µM (active)

CCN1C(=O)[C@H]2[C@@H](c3ccc(C)cc3)N3C(=O)N(c4cccc(Cl)c4)C(=O)[C@@]3(CC)[C@H]2C1=O
AC50 [22]: 2.33 µM (active)
AC50 [23]: 2.06 µM (active)
AC50 [24]: 3.98 µM (active)
AC50 [25]: 4.82 µM (active)
EC50 (HEK293 [26]): > 59.6 µM (inactive)
EC50 (HEK293 [27]): > 59.6 µM (inactive)

O=C(O)C1Nc2ccccc2C2C=CCC12 (stereo not given)
IC50 [5]: 6.05 µM (active)
IC50 [6]: > 100 µM (not active)
IC50 [7]: > 100 µM (not active)
IC50 [8]: 7.14 µM (active)
IC50 [9]: 50.8 µM (active)
IC50 [10]: 25.2 µM (active)
